Paper PMC10218254 (International Journal of Molecular Sciences, 2023)
Read-outs that look alike come from different tables or passages of the source.

Assays:
SARS-CoV-2 PL^pro [1] = target: T1, SARS-CoV-2 PL^pro (Severe acute respiratory syndrome coronavirus 2, UniProt P0DTD1); assay: biochemical; conditions: Ub-AMC substrate, 60 min incubation
SARS-CoV-2 PL^pro [2] = target: T1, SARS-CoV-2 PL^pro; assay: cell-based; conditions: HEK293T cells; for EC50: 48 h
SARS-CoV-2 PL^pro [3] = target: T1, SARS-CoV-2 PL^pro; assay: biochemical; conditions: 50 nM protease; for Ki: read-out: Ki (binding affinity of initial reversible binding); for kinact: read-out: kinact (rate constant of covalent bond formation) (converted)
[4] = Cytotoxicity, cell counting kit-8 (CCK8) assay; conditions: human, CC50, HEK293T cells
SARS-CoV-2 PL^pro [5] = target: T1, SARS-CoV-2 PL^pro; format: binding; conditions: 40 μM protease, 200 μM compound; for Tm of SARS-CoV-2 PLpro incubated with compound: apo protease 43.3 °C
SARS-CoV-2 PL^pro [6] = target: T1, SARS-CoV-2 PL^pro; assay: biochemical; conditions: for IC50: 60 min incubation
SARS-CoV-2 PL^pro [7] = target: T1, SARS-CoV-2 PL^pro; conditions: cited from earlier work
HEK293T cells = assay: Cytotoxicity, cell counting kit-8 (CCK8) assay; conditions: HEK293T cells, 24 h
MERS-CoV PL^pro = MERS-CoV PL^pro (Middle East respiratory syndrome-related coronavirus, UniProt K9N7C7); assay: biochemical
MERS-CoV PL^pro, sequence (K9N7C7 1552-1823 limits assumed): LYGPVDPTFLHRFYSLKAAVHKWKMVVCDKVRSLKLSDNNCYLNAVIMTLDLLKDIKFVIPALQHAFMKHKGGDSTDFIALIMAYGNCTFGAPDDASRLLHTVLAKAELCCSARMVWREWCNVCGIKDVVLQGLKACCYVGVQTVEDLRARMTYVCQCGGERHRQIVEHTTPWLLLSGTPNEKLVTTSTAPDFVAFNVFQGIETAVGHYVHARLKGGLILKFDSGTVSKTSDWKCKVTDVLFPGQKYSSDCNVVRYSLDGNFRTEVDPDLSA

SARS-CoV PL^pro = SARS-CoV PL^pro (Severe acute respiratory syndrome coronavirus, UniProt P0C6X7); assay: biochemical

Molecule: COC(=O)/C=C/C(=O)NNC(=O)CNC(=O)CNC(=O)C1CCN(C(C)c2cccc3ccccc23)CC1 (stereo not drawn) [compound 4, Methyl (E)-4-(2-((1-(1-(Naphthalen-1-yl)ethyl)piperidine-4-carbonyl)glycylglycyl)hydrazinyl)-4-oxobut-2-enoate]
- IC50 (SARS-CoV-2 PL^pro [1]): 0.32 µM
- inhibitory effect in cell-based protease assay (SARS-CoV-2 PL^pro [2]): hardly has an inhibitory effect
- EC50 (SARS-CoV-2 PL^pro [2]): > 200 µM
- kinact/KI (SARS-CoV-2 PL^pro [3]): 265 M⁻¹ s⁻¹
- Ki (SARS-CoV-2 PL^pro [3]): 4.65 µM
- kinact (SARS-CoV-2 PL^pro [3]): 0.00123 s⁻¹
- CC50 at 24 h [4]: > 200 µM
- Tm increase compared to apo protease (SARS-CoV-2 PL^pro [5]): 15.1 °C
- IC50 (SARS-CoV-2 PL^pro [6]; RLRGG-AMC substrate): 0.23 µM
- inhibitory potency higher than compound 2 (SARS-CoV-2 PL^pro [6]; enzymatic inhibition assay): ~ 1 fold

Molecule: COC(=O)/C=C/CNC(=O)CNC(=O)[C@H](CN)NC(=O)[C@H](CCc1ccc(O)cc1)NC(C)=O [VIR251]
- IC50 (SARS-CoV-2 PL^pro [7]): ~50 µM

Molecule: COC(=O)/C=C/C(=O)NNC(=O)CCc1ccccc1C(=O)NC(C)c1cccc2ccccc12 (stereo not drawn) [compound 3, reference compound]
- CC50 (HEK293T cells): 58.3 µM
- CC50 at 24 h [4]: 58.3 ± 22.1 µM

Molecule: COC(=O)/C=C/CNC(=O)CNC(=O)CNC(=O)C1CCN(C(C)c2cccc3ccccc23)CC1 (stereo not drawn) [compound 2, Methyl (E)-4-(2-(2-(1-(1-(Naphthalen-1-yl)ethyl)piperidine-4-carboxamido)acetamido)acetamido)but-2-enoate]
- IC50 (MERS-CoV PL^pro): > 100 µM
- inhibitory activity towards MERS-CoV PLpro (MERS-CoV PL^pro): basically ineffective
- IC50 (SARS-CoV-2 PL^pro [1]): 0.46 µM
- improvement in EC50 compared to GRL0617 (SARS-CoV-2 PL^pro [2]): ~ 4.4 fold
- EC50 (SARS-CoV-2 PL^pro [2]): 3.61 µM
- kinact/KI (SARS-CoV-2 PL^pro [3]): 160 M⁻¹ s⁻¹
- Ki (SARS-CoV-2 PL^pro [3]): 5.32 µM
- kinact (SARS-CoV-2 PL^pro [3]): 0.00085 s⁻¹
- CC50 (HEK293T cells): ~180 µM
- CC50 at 24 h [4]: ~180 µM
- Tm of SARS-CoV-2 PLpro incubated with compound (SARS-CoV-2 PL^pro [5]): 68.0 °C
- IC50 (SARS-CoV PL^pro): 0.39 µM
- change in inhibitory activities in the presence and absence of DTT (SARS-CoV-2 PL^pro [6]; 4 mM DTT, varied concentrations): no apparent change
- improvement in potency (IC50) compared to VIR251 (SARS-CoV-2 PL^pro [6]; RLRGG-AMC substrate): about 100 fold
- improvement in potency (IC50) compared to compound 1 (SARS-CoV-2 PL^pro [6]; RLRGG-AMC substrate): ~5 fold
- increase in potency (IC50) compared to positive control GRL0617 (SARS-CoV-2 PL^pro [6]; RLRGG-AMC substrate): 2 fold
- IC50 (SARS-CoV-2 PL^pro [6]; RLRGG-AMC substrate): 0.46 µM

Molecule: COC(=O)/C=C/CNC(=O)CNC(=O)[C@H](CN)NC(=O)[C@H](CCc1nc2ccccc2s1)NC(C)=O [VIR250]
- IC50 (SARS-CoV-2 PL^pro [7]; read-out: IC50): ~50 µM

Molecule: GRL0617 [reference compound]
- CC50 (HEK293T cells): > 200 µM
- Tm of SARS-CoV-2 PLpro incubated with compound (SARS-CoV-2 PL^pro [5]): 50.4 °C
